From patent publication US20250325503A1, “NEW USE OF N,N-BIS-2-MERCAPTOETHYL ISOPHTHALAMIDE” (EMERAMED LIMITED, priority 2016, published 2025) come the findings set out here.

One series concerns human TRPA1. The experiment in a line: Ratiometric calcium imaging of NAPQI activation of TRPA1 in HEK 293 cells. Type of series: cell-based. The note with it: 7 μM NAPQI; for inhibition of the activation of the receptor (TRPA1) by NAPQI: 4 μM test substance, HEK 293 cells expressing human TRPA1, FIG. 1. On the procedure: The calcium ion channel TRPA 1 is activated by NAPQI. This activation may be determined by ratiometric calcium imaging.
HEK 293 cells expressing human TRPA1 were pre-incubated with 7 μM NAPQI and the calcium fluorophore FURA II. One experiment was run in the presence of 4 μM NBMI and the another was run in the presence of 4 μM NAC.

Series [1] concerns paracetamol intoxicated mice. The experiment in a line: Paracetamol intoxicated mice study, i.p. paracetamol (ALT, AST). Type of series: in vivo. As to conditions: paracetamol 300 mg/kg I.P., 24 hours. On the procedure:
In normal mice, the liver enzyme alanine transaminase (ALT) level is about 36-40 unit/L and the liver enzyme aspartate transaminase (AST) level is about 90 unit/L. […] The ratio of AST: ALT can also be relevant in humans; a value at or below 1 is considered to indicate toxicity. […] 30 minutes later, two (2) of the mice were administered vehicle only, two (2) received NAC 1200 mg/kg per os, two (2) received NBMI 200 mg/kg per os. The mice were sacrificed at 24 hours.

Series [2] can be described thus: Clinical proof of concept study: paracetamol and cys-paracetamol in venous blood after 1 g paracetamol with or without NBMI. As to conditions: venous blood over eight hours. Type of series: in vivo, human. On the procedure: A pilot clinical study was performed at the Lund Hospital Clinical Trial Unit, on three occasions.
Series [3] relates to paracetamol intoxicated mice. Put plainly: Paracetamol intoxicated mice study, oral paracetamol (ALT). Type of series: in vivo. On the procedure:
(§1) The ratio of AST: ALT can also be relevant in humans; a value at or below 1 is considered to indicate toxicity.
20 minutes later, half of the mice (3) were administered vehicle (0.5% (w/v) carboxymethylcellulose 300-600 centipoises in water) only, half of the mice (3) received NBMI 100 mg/kg per os (NBMI dissolved in CMC as described below). […]

Series [4] has as its system paracetamol intoxicated mice. Put plainly: NBMI versus vehicle in paracetamol intoxicated mice, i.p. paracetamol, synchronised oral dosing (AST, ALT). Type of series: in vivo. On the procedure:
as §1
Mice were sacrificed at 24 hours after administration, following which levels of liver enzymes AST and ALT were measured.
In the NBMI-treated group, eleven (11) mice were treated.

Series [5] is described as follows: Clinical trials of NBMI, adverse events. Type of series: in vivo. The note with it: 4.5-9 mg/kg dose in humans.
The mark [6] stands for this setting: NAC 1200 mg/kg per os 30 minutes later.
Setting [7] is: NBMI 200 mg/kg per os 30 minutes later.
Setting [8] is: paracetamol 200 mg/kg i.p., synchronous oral NBMI 680 mg/kg in CMC, 24 hours.

SMILES strings stand for the structures.

Take `CC(=O)N[C@@H](CS)C(=O)O` [NAC, N-acetyl cysteine, reference compound]: the “inhibition of the activation of the receptor (TRPA1) by NAPQI” value with human TRPA1 is on record as “only partial inhibition”. In series [1] (setting [6]), the AST level stood at 180 unit/L and the “average ALT level” value stood at 55 unit/L.
With `CC(=O)N=C1C=CC(=O)C=C1` [NAPQI, N-acetyl-p-benzoquinone imine], the receptor activation result with human TRPA1 (in the absence of NBMI or NAC) was “about 55%”.
On to `O=C(NCCS)c1cccc(C(=O)NCCS)c1` [NBMI, N,N-bis-2-mercaptoethyl isophthalamide], for which the “inhibition of the activation of the receptor (TRPA1) by NAPQI” value in the series on human TRPA1 was “almost completely inhibited”. Also, in series [2] (600 mg NBMI one hour prior to 1 g paracetamol), the “decrease of area under the curve (AUC) of cys-paracetamol” value is given as 23%. Also, the “decrease of area under the curve (AUC) of cys-paracetamol” value in series [2] (1,200 mg NBMI two hours before 1 g paracetamol) is listed as 73%. Also, the “median ALT level” value in series [3] (paracetamol 700 mg/kg per os, NBMI 100 mg/kg per os 20 minutes later, sacrificed at 17 hours) is 624 unit/L. In series [3] (po, 100 mg/kg), the “median ALT lower than the median of the intoxicated animals” value is listed as “about 95%”. For the same compound, in series [1] (setting [7]), the “AST level (printed as ALT level)” value turned out to be 600 unit/L and the “average ALT level” value is 984 unit/L. Moreover, the “AST/ALT ratio, average” value in series [4] (680 mg/kg, 24 h) was 2.1. In series [4] (setting [8]), the “ALT, average” value is reported as 952 units/L and the “AST, average” value was determined as 753 units/L. Besides, the “drug related adverse events” value in series [5] is reported as “no drug related adverse events”.
